Data: patent US20090053139A1, “Dendrimer based compositions and methods of using the same” (Regents of the University of Michigan, priority 2006, published 2009)

Legend:
KB cells = experiment: Inhibition of KB cell growth (XTT assay / total cell protein); type: cell-based, human
Experimental: Cell culture and treatment.
Evaluation of dendrimer cytotoxicity. Cell growth was determined by assay of the total protein in lysates of treated cells using a bicinchoninic acid reagent (PIERCE, and by XTT assay, using a kit from Roche.
Because the binding of the conjugate to KB cells reaches maximal uptake within 1 h (Quintana et al, 2002. Pharmaceutical Research 19: 1310-1316), the effect of the G5-FI-FA-MTX on cell growth was initially tested by pre-incubation of cells with the conjugate for 1 h, followed by incubation in a drug-free medium for 5 d. […] When the cells were pre-incubated with dendrimers for 4 h, there was a modest decrease of about 10% in cell growth as determined by XTT assay. The cytotoxicity measurements were therefore done by incubation with the dendrimer for a minimum of 24 h, a pre-incubation time period shown to induce significant cytotoxicity.
Time course and dose dependent inhibition of cell growth. Previous studies have shown that MTX-induced cytotoxicity is detectable in vitro only if the medium is completely deprived of FA (See, e.g., Sobrero & Bertino, Int. J. Cell Cloning 4, 51 (1986)). The effect of the trifunctional dendrimers on cell growth was tested in cells incubated in a FA-deficient medium. Cells were treated with 300 nM conjugates (equivalent of 1500 nM MTX) or 1500 nM free MTX for 1-4 days, and cell proliferation was determined by estimation of cellular protein content. […] KB cells which express high and low FAR were incubated with 30 nM of the dendrimers for 1 hr at 37° C., rinsed, and the fluorescence of cells was determined by flow cytometric analysis (See. e.g., FIG. 21, left panel). […]
As the G5-FITC-FA-MTX preparation contained equimolar concentrations of MTX and FA, the effect of similar concentrations of free MTX and free FA on the inhibition of cell growth was determined. […] The cells were rinsed to remove the drugs and incubated with fresh medium for an additional 6 d, and total cell protein was determined. […]

human KB xenografts = experiment: Tumor growth and survival of SCID mice bearing s.c. human KB xenografts; type: in vivo
Experimental: (§1) Delivery of targeted nanoparticle therapeutic.
Targeted drug delivery to tumor cells through the folate receptor. The efficacy of different doses of conjugates was tested on SCID CB-17 mice bearing s.c. human KB xenografts and was compared with equivalent and higher doses of free methotrexate. […] Six groups of SCID mice with five mice in each group were injected s.c. on one flank with 5×10^6 KB cells in 0.2 mL PBS suspension. The highest total dose of G5-FI-FA-MTX therapeutic used equals 55.0 mg/kg and is equivalent to a 5.0 mg/kg total cumulative dose of free methotrexate (FIG. 29). The therapeutic dose of the conjugate was compared with three cumulative doses of free methotrexate equivalent to 33.3, 21.7, and 5.0 mg/kg accumulated in 10 to 15 injections based on mouse survival. Saline and the conjugate without methotrexate (G5-FI-FA) were used as controls.
The equivalent dose of methotrexate delivered with both targeted conjugates to the surviving mice was higher than the dose of free methotrexate because all of the mice receiving free methotrexate died by day 66 of the trial (FIG. 30). The survival of mice from groups receiving G5-FI-FA-MTX or G5-FA-MTX conjugate indicate that tumor growth based on the end-point volume of 4 cm3 can be delayed by at least 30 days (FIG. 30). This value indicates the antitumor effectiveness of the conjugate because it mimics clinical end-points and requires observation of the mice throughout the progression of the disease. […] The tumor in this mouse was not palpable for the next 20 days up to the 60th day of the trial. […] Thus, in some embodiments, the present invention provides a composition comprising a dendrimer comprising a targeting agent, a therapeutic agent and an imaging agent. In preferred embodiments, the dendrimer is used for delivery, in a target specific manner, of a therapeutic agent (e.g., methotrexate) to tumor cells in vivo.

[1] = Toxicity of dendrimer conjugates and free methotrexate in SCID mice; type: in vivo
Excerpt: as §1
Toxicity of dendrimer conjugates. […] No morphologic abnormalities were observed on the histopathology examination.
The remaining experimental groups had very uniform body weight fluctuations nonindicative of toxicity when compared with control groups with saline or conjugate without methotrexate.

Structure (SMILES) | reversal of MTX-induced growth arrest by free FA (KB cells; 150 nM FA with 150 nM MTX, 24 h, then 6 d, total cell protein) | effect on tumor growth (human KB xenografts; cumulative dose equivalent to 5.0 mg/kg methotrexate (G5-FI-FA equimolar dendrimer)) | effect on tumor growth (human KB xenografts; free methotrexate cumulative 33.3 and 21.7 mg/kg) | survivors at termination of the trial (human KB xenografts; second 99-day trial) | inhibition of cell growth (XTT assay) (KB cells; 1, 2 or 3 days) | growth inhibition of free MTX versus equimolar MTX in conjugate (KB cells; below 1 μM) | liver histopathology ([1]; mouse, in vivo) | toxicity (body weight) ([1]; total dose equivalent to 5.0 mg/kg free methotrexate)
Nc1nc2ncc(CNc3ccc(C(=O)N[C@@H](CCC(=O)O)C(=O)O)cc3)nc2c(=O)[nH]1 [FA, Folic Acid] | almost completely reversed the growth-arrest caused by 150 nM MTX | – | – | – | – | – | – | –
CN(Cc1cnc2nc(N)nc(N)c2n1)c1ccc(C(=O)N[C@@H](CCC(=O)O)C(=O)O)cc1 [MTX, Methotrexate] | – | no effect on tumor growth | affecting tumor growth | no mice surviving | time-dependent cytotoxicity | higher than with the equimolar concentrations of MTX in the G5-FITC-FA-MTX | advanced liver lesions, collections of inflammatory cells, and periportal inflammation | neither the total accumulated dose of therapeutic conjugate equivalent to 5.0 mg/kg free methotrexate nor free methotrexate at the same dose were toxic
